Assay results taken from PubChem BioAssay AID2060614 (Molecular Pharmacology Branch, DTP, NCI, 2025).
pIC50: −log10 of the molar value. “And” between values parts separate entries of the source, which are not always exact repeats. Equal entries are not always repeated.

Test system: 598228-144-R-J1-PDC complex spheroids, viability
Test: Anticancer human tumor 598228-144-R-J1-PDC patient-derived serous endometrial adenocarcinoma cell line growth inhibition [CLK]
Conditions: for viability, T/C: stronger effect = lower value
Excerpt: A high-throughput screen of multi-cell type tumor spheroids was designed to identify active combinations of […] and targeted small molecules. Complex spheroids include a stromal component modeled by human endothelial cells (HUVEC) and fibroblasts modeled by human mesenchymal stem cells (MSCs). The concentration ranges selected for each drug and investigational agent were based upon clinically achievable concentrations if the clinical Cmax of the agent was known.
Compounds. The drugs and investigational agents: cirtuvivint (SM08502; NSC835563), CC-671 (NSC850746), vemurafenib (NSC761431), tapotoclax (NSC804041), sotorasib (NSC818433), adagrasib (NSC831453), MRTX-1133 (NSC836407), BAY2416964 (NSC825713), copanlisib (NSC816437), inavolisib (NSC800729), abemaciclib (NSC768073), osimertinib (NSC779217), entinostat (NSC756642), eltanexor (KPT-8602, NSC794443), venetoclax (NSC766270), ceralasertib (NSC777638), bortezomib (NSC756655), olaparib (NSC753686), talazoparib (NSC767125), alisertib (NSC759677), peposertib (NSC802822), gemcitabine (NSC613327), 5-fluorouracil (NSC19893), SN-38 (NSC673596), oxaliplatin (NSC266046), paclitaxel (NSC125973), and doxorubicin (NSC123127), were obtained from the National Cancer Institute (NCI) Developmental Therapeutics Program Chemical Repository. The FDA-approved anticancer drug set is available from the Developmental Therapeutics Program at https://dtp.cancer.gov/organization/dscb/obtaining/available plates.htm. […] The stock solutions were prepared in dimethyl sulfoxide (DMSO, Sigma-Aldrich, St. Louis, MO, cat. D2650), except for the platinum complexes which were prepared in saline (Quality Biological, Gaithersburg, MD, cat. 114-055-101), at 800-fold the tested concentration and stored at -70 degrees C prior to their use. All drugs and investigational agents were tested over a range starting from a high concentration at or near the clinical Cmax and decreasing in half-log increments. If the clinical Cmax for an agent had not been determined, the highest concentration tested was 10 microM.
Cell Culture. All cells were maintained in an incubator at 37 degrees C and 5% CO2 with 95% humidity. The PDC lines were cultured according to standard operating procedures established by the NCI PDMR. Briefly, all PDCs were thawed and cultured in Matrigel-coated flasks prepared with a working solution of 1X Ham's F-12 nutrient mix, without supplementation (Invitrogen, Waltham, MA, cat. 11765054), 100 U/mL penicillin-streptomycin (Invitrogen, cat. 15140122), and 2.5% Matrigel (Corning Inc., Corning, NY, cat. 354248) for the first three passages. The 947758-054-R-J2-PDC line was cultured in 6B/Colon 1A media, which includes advanced DMEM/F-12 (Thermo Fisher Scientific, cat. 12634028), 10 mM HEPES (Thermo Fisher Scientific, cat. 15630080), 1X GlutaMAX supplement (Thermo Fisher Scientific, cat. 35050061), 0.1 mg/mL primocin (InvivoGen, cat. ant-pm-2), 10% defined fetal bovine serum, heat inactivated (HyClone Laboratories Inc., cat. SH30070.03HI), 1.25 mM N-Acetyl-L-cysteine (Sigma-Aldrich, cat. A9165), 10 mM nicotinamide (Sigma-Aldrich, cat. N0636), 1X B-27 supplement (Thermo Fisher Scientific, cat. 17504044), 1X N-2 supplement (Thermo Fisher Scientific, cat. 17502048), and 10 microM Y-27632 dihydrochloride (Tocris Bioscience, cat. 1254). The 876862-298-R-J1-PDC was cultured in 6E media, which includes all 6B/Colon 1A media components plus 50% L-WRN conditioned media (ATCC, cat. CRL-3276), 50 ng/mL recombinant human EGF recombinant protein (hEGF; Thermo Fisher Scientific, cat. PHG0311), 10 ng/mL recombinant human fibroblast growth factor 10 (hGFG-10; PeproTech, cat. 100-26), 1 ng/mL recombinant human fibroblast growth factor 2 (hFGF-2; PeproTech, cat. 100-18B), and 1 µM prostaglandin E2 (PGE2; Tocris, cat. 2296). The 227483-062-R1-J1-PDC line was cultured in Panc media, containing all 6E components except hFGF-2, with the addition of 500 nM SB-431542 (Selleckchem, cat. S1067) and 10 nM gastrin (Tocris, cat. 3006). […]
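Further: spheroids exposed to compounds for seven days before readout.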
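Wherever viability, T/C is given: 100% = DMSO vehicle control wells.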

Q: Which results are given for `O=C(c1cc(Cc2n[nH]c(=O)c3ccccc23)ccc1F)N1CCN(C(=O)C2CC2)CC1`?
A: viability, T/C (compound 0.0316 µM): 93.1% and 97.7%; viability, T/C (compound 0.1 µM): 87.5% and 104%; viability, T/C (compound 0.316 µM): 95.4% and 94.2%; viability, T/C (compound 1 µM): 94.4% and 105%; viability, T/C (compound 3.16 µM): 97.5% and 103%; viability, T/C (compound 10 µM): 88% and 87.2%; pIC50 (curve of compound): < 5.00

Q: With `O=c1[nH]cc(F)c(=O)[nH]1` as the molecule, how does the viability, T/C (compound 0.0316 µM) read?
A: Its viability, T/C is 106% and 89.1%.

Q: What about the viability, T/C (compound 0.1 µM) of the same molecule?
A: The viability, T/C was 94.6% and 96.1%.

Q: And the viability, T/C (compound 0.316 µM)?
A: Its viability, T/C is 101% and 88.6%.

Q: What about the viability, T/C (compound 1 µM) of the same molecule?
A: Its viability, T/C is 97.6% and 99.6%.

Q: And the viability, T/C (compound 3.16 µM)?
A: The viability, T/C was 99.3% and 88.9%.

Q: What about the viability, T/C (compound 10 µM) of the same molecule?
A: The viability, T/C was 74.2% and 77.3%.

Q: And the pIC50 (curve of compound)?
A: Its pIC50 is < 5.00.

Q: With `CCCS(=O)(=O)Nc1ccc(F)c(C(=O)c2c[nH]c3ncc(-c4ccc(Cl)cc4)cc23)c1F` + CN1CCN(c2cc(C(=O)Nc3cc4cc(-c5cnn(C)c5)ccc4cn3)ccn2)CC1 as the molecule, how does the pIC50 (curve of first compound, second compound 0.0316 µM) read?
A: The pIC50 was < 5.00.

Q: What about the pIC50 (curve of first compound, second compound 0.1 µM) of the same molecule?
A: The pIC50 was < 5.00.

Q: And the pIC50 (curve of first compound, second compound 0.316 µM)?
A: The pIC50 was > 7.50.

Q: And the pIC50 (curve of first compound, second compound 1 µM)?
A: The pIC50 was > 7.50.

Q: And the pIC50 (curve of first compound, second compound 3.16 µM)?
A: The pIC50 was > 7.50.

Q: What about the pIC50 (curve of first compound, second compound 10 µM) of the same molecule?
A: The pIC50 was > 7.50.

Q: And the viability, T/C (second compound 0.0316 µM, first compound 0.0316 µM)?
A: The viability, T/C was 114%.

Q: And the viability, T/C (second compound 0.0316 µM, first compound 0.1 µM)?
A: Its viability, T/C is 136%.

Q: What about the viability, T/C (second compound 0.0316 µM, first compound 0.316 µM) of the same molecule?
A: The viability, T/C was 119%.

Q: And the viability, T/C (second compound 0.0316 µM, first compound 1 µM)?
A: The viability, T/C was 145%.

Q: And the viability, T/C (second compound 0.0316 µM, first compound 3.16 µM)?
A: Its viability, T/C is 115%.

Q: And the viability, T/C (second compound 0.0316 µM, first compound 10 µM)?
A: The viability, T/C was 71%.

Q: And the viability, T/C (second compound 0.1 µM, first compound 0.0316 µM)?
A: The viability, T/C was 132%.

Q: What about the viability, T/C (second compound 0.1 µM, first compound 0.1 µM) of the same molecule?
A: Its viability, T/C is 144%.

Q: What about the viability, T/C (second compound 0.1 µM, first compound 0.316 µM) of the same molecule?
A: The viability, T/C was 111%.

Q: And the viability, T/C (second compound 0.1 µM, first compound 1 µM)?
A: Its viability, T/C is 131%.

Q: What about the viability, T/C (second compound 0.1 µM, first compound 3.16 µM) of the same molecule?
A: Its viability, T/C is 112%.

Q: And the viability, T/C (second compound 0.1 µM, first compound 10 µM)?
A: The viability, T/C was 72.5%.

Q: And the viability, T/C (second compound 0.316 µM, first compound 0.0316 µM)?
A: The viability, T/C was 20.5%.

Q: And the viability, T/C (second compound 0.316 µM, first compound 0.1 µM)?
A: Its viability, T/C is 23.8%.

Q: What about the viability, T/C (second compound 0.316 µM, first compound 0.316 µM) of the same molecule?
A: The viability, T/C was 19.9%.

Q: And the viability, T/C (second compound 0.316 µM, first compound 1 µM)?
A: Its viability, T/C is 15.7%.

Q: And the viability, T/C (second compound 0.316 µM, first compound 3.16 µM)?
A: Its viability, T/C is 17.3%.

Q: And the viability, T/C (second compound 0.316 µM, first compound 10 µM)?
A: Its viability, T/C is 15.5%.

Q: And the viability, T/C (second compound 1 µM, first compound 0.0316 µM)?
A: The viability, T/C was 1.62%.

Q: What about the viability, T/C (second compound 1 µM, first compound 0.1 µM) of the same molecule?
A: The viability, T/C was 1.8%.

Q: And the viability, T/C (second compound 1 µM, first compound 0.316 µM)?
A: Its viability, T/C is 2.03%.

Q: What about the viability, T/C (second compound 1 µM, first compound 1 µM) of the same molecule?
A: Its viability, T/C is 1.5%.

Q: What about the viability, T/C (second compound 1 µM, first compound 3.16 µM) of the same molecule?
A: The viability, T/C was 2.94%.

Q: What about the viability, T/C (second compound 1 µM, first compound 10 µM) of the same molecule?
A: The viability, T/C was 4.26%.

Q: And the viability, T/C (second compound 3.16 µM, first compound 0.0316 µM)?
A: The viability, T/C was 2.08%.

Q: And the viability, T/C (second compound 3.16 µM, first compound 0.1 µM)?
A: The viability, T/C was 6.53%.

Q: And the viability, T/C (second compound 3.16 µM, first compound 0.316 µM)?
A: Its viability, T/C is 1.71%.

Q: And the viability, T/C (second compound 3.16 µM, first compound 1 µM)?
A: The viability, T/C was 2.24%.

Q: What about the viability, T/C (second compound 3.16 µM, first compound 3.16 µM) of the same molecule?
A: Its viability, T/C is 5.08%.

Q: And the viability, T/C (second compound 3.16 µM, first compound 10 µM)?
A: The viability, T/C was 7.6%.

Q: What about the viability, T/C (second compound 10 µM, first compound 0.0316 µM) of the same molecule?
A: The viability, T/C was 1.08%.

Q: And the viability, T/C (second compound 10 µM, first compound 0.1 µM)?
A: Its viability, T/C is 0.79%.

Q: What about the viability, T/C (second compound 10 µM, first compound 0.316 µM) of the same molecule?
A: The viability, T/C was 1.22%.

Q: What about the viability, T/C (second compound 10 µM, first compound 1 µM) of the same molecule?
A: The viability, T/C was 1.42%.

Q: And the viability, T/C (second compound 10 µM, first compound 3.16 µM)?
A: The viability, T/C was 3.13%.

Q: And the viability, T/C (second compound 10 µM, first compound 10 µM)?
A: Its viability, T/C is 6.03%.
